In US8030547B2, “Gene coding for acetolactate synthase” (priority 2002, dated 2011):

What was measured:
[1] = molecular target: T1, mutant ALS protein of Rb line (Oryza sativa subsp. japonica, UniProt Q6K2E8, P171H, form not given); assay: Herbicide sensitivity of partially purified ALS protein (ALS activity inhibition), Rb line; format: biochemical, Oryza sativa var. Kinmaze; details: read-out: I50 (nM) Rb; partially purified ALS, 30° C., probit analysis
T1 construct: other: partially purified ALS, 30° C., probit analysis
T1 sequence (Q6K2E8 whole entry P171H/W548L, form open): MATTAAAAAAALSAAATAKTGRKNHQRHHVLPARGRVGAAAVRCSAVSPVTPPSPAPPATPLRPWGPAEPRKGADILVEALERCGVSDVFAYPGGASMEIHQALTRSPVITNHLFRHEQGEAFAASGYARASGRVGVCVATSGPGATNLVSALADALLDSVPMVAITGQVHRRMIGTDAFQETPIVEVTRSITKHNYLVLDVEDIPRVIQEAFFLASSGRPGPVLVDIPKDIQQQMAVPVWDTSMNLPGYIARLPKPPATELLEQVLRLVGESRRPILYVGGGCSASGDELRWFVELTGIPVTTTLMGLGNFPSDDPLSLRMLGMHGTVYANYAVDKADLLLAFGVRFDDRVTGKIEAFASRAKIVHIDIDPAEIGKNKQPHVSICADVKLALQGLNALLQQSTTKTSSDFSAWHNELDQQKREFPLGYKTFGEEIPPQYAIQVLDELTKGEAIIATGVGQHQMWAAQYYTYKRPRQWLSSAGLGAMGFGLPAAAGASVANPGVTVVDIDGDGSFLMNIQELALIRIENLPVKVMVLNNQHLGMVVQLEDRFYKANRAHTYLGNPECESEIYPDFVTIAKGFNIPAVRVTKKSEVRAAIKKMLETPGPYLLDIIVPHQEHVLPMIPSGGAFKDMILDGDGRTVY
Method: (§1) First, 200 g or more of resistant mutant was prepared by a liquid culture method (no supplementation with bispyribac-sodium), using a composition as shown in Table 3 excluding Gelrite. Then, about 150 g of the resistant mutant was homogenized using Hiscotron in a volume of buffer-1 [100 mM potassium phosphate buffer (pH 7.5) containing 20% (v/v) glycerol, […] thiamin pyrophosphate (TPP), 10 μM flavin adenine dinucleotide (FAD), 0.5 mM MgCl2, and a volume of polyvinyl polypyrrolidone one-tenth that of tissue volume] 3-fold greater than tissue volume. The homogenate was filtered through nylon gauze, and then centrifuged at 15000×g for 20 minutes. Ammonium sulfate was added to the centrifuged supernatant to 50% saturation, and then allowed to stand in ice for approximately 1 hour. The mixture was again centrifuged at 15000×g for 20 minutes, and then the precipitated fraction was dissolved in approximately 30 ml of buffer-2 [10 mM Tris hydrochloric acid buffer (pH 7.5) containing 20% (v/v) glycerol, 0.5 mM TPP and 0.5 mM MgCl2]. The mixture was again centrifuged at 15000×g for 20 minutes, and then the supernatant fraction was applied to a Sephadex G-25 (Amersham Bioscience). About 40 ml of the fraction that had passed through the column was collected as a crude enzyme solution.
(§2) Next, the protein concentration of the crude enzyme solution was measured by the Bradford method according to the manual of Bio-Rad Protein Assay. The crude enzyme solution was then filtered through a Whatman filter (Whatman), and then the crude enzyme solution in an appropriate protein amount (10 to 15 ml) was applied to three vertically-connected HiTrap Q columns (Amersham Bioscience) using a FPLC device (Amersham Bioscience). After protein component was adsorbed using HiTrap Q, unadsorbed fractions were washed out using buffer-2 having a volume 3 to 5 fold greater than the bed volume. Then, the adsorbed protein component was eluted using an eluate having a volume 10 fold greater than the bed volume (150 ml). Here, the eluate was prepared by dissolving KCl with a linear concentration gradient (0 to 0.4 M) into buffer-2. The eluate containing the eluted protein component was apportioned, 5 ml each, into a plurality of test tubes for apportioning. Further, to stabilize ALS protein contained in the eluted protein component, 0.5 ml of buffer-2 containing 20 mM sodium pyruvate had been previously added to each test tube for apportioning.
(§3) ALS activity resulting from the mutant ALS protein contained in the eluted fractions apportioned into each test tube for apportioning was measured as follows. A reaction solution to be used in a measurement reaction was prepared by mixing an eluted fraction to be measured with a solution comprising 20 mM sodium pyruvate, 0.5 mM TPP, 0.5 mM MgCl2, 10 μM FAD and 20 mM potassium phosphate buffer (pH 7.5). One ml of this reaction solution was used. After the eluted fraction to be measured was added, the measurement reaction was performed at 30° C. for 40 to 60 minutes. Then, the reaction was stopped by addition of 0.1 ml of 6N sulfuric acid (or 0.25 N sodium hydroxide).
(§4) After the reaction was stopped, the reaction solution was incubated at 60° C. for 10 minutes, thereby converting acetolactate contained in the reaction solution to acetoin.
(§5) Then, to quantify acetoin contained in the reaction solution, 1 ml of 0.5% (w/v) creatine and 1 ml of 5% (w/v) α-naphthol dissolved in 2.5 N sodium hydroxide was added to the reaction solution, followed by incubation at 37° C. for 10 minutes. Acetoin was then quantified by color comparison of the absorbance (at 525 nm) of the reaction solution, thereby evaluating ALS activity. In addition, since the reaction solution contained a small amount of sodium pyruvate, reaction time 0 was used as control.
(§6) Using the enzyme solution containing the mutant ALS protein, sensitivity of the mutant ALS protein to bispyribac-sodium, chlorsulfuron and imazaquin was examined. […]

[2] = system: mutant ALS protein of Rb line; assay: as above; format: biochemical, Oryza sativa var. Kinmaze; details: I50 of the resistant mutant divided by I50 of the wild type
Method: as §1, §2, §3, §4, §5, §6

[3] = molecular target: T2, GST fusion P171H/W548L/S627I mutant ALS protein (Oryza sativa subsp. japonica, UniProt Q6K2E8, P171H/S627I/W548L); assay: Herbicide sensitivity of ALS protein expressed in E. coli (crude enzyme solution), P171H/W548L/S627I; format: biochemical, rice (Oryza sativa var. Kinmaze); details: for RS ratio/ predicted RS ratio / Predicted RS ratio: P171H/W548L/S627I mutant; for RS ratio: P171H/W548L/S627I mutant vs wild type; for Predicted RS ratio: product of RS ratios of the 1-point mutants
T2 construct: made in house; host or cells: E. coli, pGEX-2T(ALS-P171H, W548L, S627I mutant); crude supernatant
T2 sequence (Q6K2E8 44-644 P171H/W548L/S627I): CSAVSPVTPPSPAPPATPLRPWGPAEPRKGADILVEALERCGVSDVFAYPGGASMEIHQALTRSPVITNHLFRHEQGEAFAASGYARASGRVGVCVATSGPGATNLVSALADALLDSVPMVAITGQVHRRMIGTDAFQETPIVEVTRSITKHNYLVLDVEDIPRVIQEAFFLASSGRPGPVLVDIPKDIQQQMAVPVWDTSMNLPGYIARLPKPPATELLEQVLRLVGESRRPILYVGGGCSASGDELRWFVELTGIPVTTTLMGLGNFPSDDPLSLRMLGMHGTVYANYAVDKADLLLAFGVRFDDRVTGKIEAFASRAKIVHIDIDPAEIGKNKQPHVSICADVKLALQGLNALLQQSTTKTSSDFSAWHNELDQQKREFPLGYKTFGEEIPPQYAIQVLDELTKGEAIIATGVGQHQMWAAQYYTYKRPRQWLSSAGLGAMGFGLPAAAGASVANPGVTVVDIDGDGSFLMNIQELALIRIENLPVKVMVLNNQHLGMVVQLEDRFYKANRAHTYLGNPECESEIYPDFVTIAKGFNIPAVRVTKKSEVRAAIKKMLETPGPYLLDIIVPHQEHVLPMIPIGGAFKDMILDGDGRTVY
Method: as §3, §4, §5
E. coli transformed with pGEX-2T(ALS-wild) constructed in Example 3(5), E. coli transformed with pGEX-2T(ALS-W548L mutant) constructed in Example 5, E. coli transformed with pGEX-2T(ALS-S627I mutant) constructed in Example 5, E. coli transformed with pGEX-2T(ALS P171H mutant) constructed in Example 6, E. coli transformed with pGEX-2T(ALS R172S mutant) constructed in Example 6, E. coli transformed with pGEX-2T(ALS P171H, R172S mutant) constructed in Example 7, E. coli transformed with pGEX-2T(ALS-P171H, W548L mutant) constructed in Example 8, E. coli transformed with pGEX-2T(ALS-P171H, S627I mutant) constructed in Example 8, and E. coli transformed with pGEX-2T(ALS-P171H, W548L, S627I mutant) constructed in Example 9 were respectively shake-cultured (pre-culture) at 27° C. in 2 ml of LB liquid medium containing ampicillin. These types of E. coli were respectively cultured in 250 ml of LB liquid medium containing ampicillin using 1 ml of the pre-culture solution. After culturing overnight, 1 mM IPTG was added to the media, and then culturing was performed for a further 3 to 4 hours, so that the expression of GST fusion protein was induced. In addition, the cells were stored at −80° C. after washing.
Preparation and purification of ALS from E. coli were performed by the following method. First, the pellet of the transformant E. coli stored at −80° C. was suspended in ALS extraction buffer (potassium phosphate buffer (pH 7.5) containing 30% glycerol and 0.5 mM MgCl2). Specifically, 2.5 ml of the buffer was added to the pellet obtained from 50 ml of the culture solution. The suspension was subjected to ultrasonication (Heat Systems-Ultrasonics, Sonicator W-225R, micro chip, output control 8, interval of approximately 1 second, twice (40 seconds each)), and subjected to centrifugation at 15000×g, 4° C. for 20 minutes, thereby obtaining the supernatant as a crude enzyme solution.
Herbicide sensitivity of the wild type ALS protein and that of mutant ALS protein were examined using the 9 types of crude enzyme solutions obtained in Example 10. Herbicide sensitivity test was performed according to procedures almost the same as those in Example 2. However, in this example, reaction temperature was 37° C., reaction time was 30 minutes, and 10 mM valine was added to the reaction solution to inhibit ALS activity derived from E. coli. Further, three types of herbicides, bispyribac-sodium, pyrithiobac-sodium, and pyriminobac, were used as PC herbicides; chlorsulfuron was used as a sulfonylurea herbicide; and imazaquin was used as an imidazolinon herbicide. […]

[4] = read-out: inhibition % at the highest concentration among the concentrations tested

Row | Structure (SMILES) | IC50 [1] [nM] | RS ratio Rb [2] | RS ratio/ predicted RS ratio [3] | RS ratio [3] | Predicted RS ratio [3] | inhibition at 100 µM [3, 4] [%] | inhibition at 500 µM [3, 4] [%]
1 | COc1cc(OC)nc(Oc2cccc(Oc3nc(OC)cc(OC)n3)c2C(=O)O)n1 [bispyribac-sodium] | 247000 | 43900 | >0.084 | >16000 | 190000 | 1.1 | –
2 | COc1nc(C)nc(NC(=O)NS(=O)(=O)c2ccccc2Cl)n1 [chlorsulfuron] | 32000 | 1850 | >0.24 | – | 160000 | – | 30
3 | CC(C)C1(C)N=C(c2nc3ccccc3cc2C(=O)O)NC1=O (stereo not shown) [imazaquin] | 609000 | 411 | – | >45 | >460 | 15 | –
